# From ChEMBL document CHEMBL1138055, “Tetraoxane antimalarials and their reaction with Fe(II)” (J Med Chem, 2006)
# Values joined by “and” are separate entries in the source; they are usually repeats but may differ in a detail not shown here. Equal values may be shown once.
# Columns and labels:
# PBMC [1] = assay: Selectivity index, IC50 for PBMC/IC50 for Plasmodium falciparum D6; assay type: functional
# PBMC [2] = assay: Selectivity index, IC50 for PBMC/IC50 for Plasmodium falciparum W2; assay type: functional
# PBMC [3] = assay: Selectivity index, IC50 for PBMC/IC50 for Plasmodium falciparum TM91C235; assay type: functional
# PBMC [4] = assay: Selectivity index, IC50 for PBMC/LC50 for UO31 cells; assay type: functional
# 786-0 = assay: Antiproliferative activity against human 786-0 cell line after 48 hrs; assay type: functional; conditions: 786-0, 48 h
# LOX IMVI = assay: Antiproliferative activity against human LOX IMVI cell line after 48 hrs; assay type: functional; conditions: for CC50: read-out: LC50 (the source's name)
# UO-31 = assay: Antiproliferative activity against human UO31 cell line after 48 hrs; assay type: functional; conditions: Homo sapiens, UO-31, 48 h; for CC50: read-out: LC50 (the source's name)
# Mus musculus [5] = species: Mus musculus; assay: Intrinsic clearance in mouse liver microsomes; assay type: ADME, Microsome
# Liver microsomes = assay: Intrinsic clearance in human liver microsomes; assay type: ADME, Microsome
# [6] = Half life in mouse liver microsomes; assay type: ADME, Microsome
# [7] = Half life in human liver microsomes; assay type: ADME, Microsome
# PBMC [8] = assay: Cytotoxicity against human peripheral blood mononuclear cells; assay type: functional, cell-based
# EKVX = assay: Antiproliferative activity against human EKVX cell line after 48 hrs; assay type: functional; conditions: Homo sapiens, EKVX, 48 h
# PBMC [9] = assay: Cytotoxicity against PHA-stimulated human PBMC; assay type: functional, cell-based
# Plasmodium falciparum [10] = system: Plasmodium falciparum
# Description: (§1) Antimalarial activity against Plasmodium falciparum D6
# Plasmodium falciparum [11] = system: Plasmodium falciparum; remark: listed apart in the source
# Description: (§2) Antimalarial activity against Plasmodium falciparum W2
# Plasmodium falciparum [12] = system: Plasmodium falciparum; remark: listed apart in the source
# Description: (§3) Antimalarial activity against Plasmodium falciparum TM91C235
# IGROV-1 = assay: Antiproliferative activity against human IGROV1 cell line after 48 hrs; assay type: functional; conditions: Homo sapiens, IGROV-1, 48 h; for CC50: read-out: LC50 (the source's name)
# SF-539 = assay: Antiproliferative activity against human SF539 cell line after 48 hrs; assay type: functional; conditions: SF-539, 48 h
# SK-MEL-28 = assay: Antiproliferative activity against human SK-MEL28 cell line after 48 hrs; assay type: functional; conditions: SK-MEL-28, 48 h
# Mus musculus [13] = assay: Effect on survival of CD1 mice (Mus musculus) infected with Plasmodium berghei KBG173 at 4 mg/kg/day, peroral; assay type: functional; conditions: route oral
# Mus musculus [14] = assay: Effect on survival of CD1 mice (Mus musculus) infected with Plasmodium berghei KBG173 at 2 mg/kg/day, perorally; assay type: functional; conditions: route oral
# Plasmodium falciparum [15] = assay: microbe, parasite or virus in culture; conditions: D6
# Description: as §1
# Plasmodium falciparum [16] = assay: microbe, parasite or virus in culture; conditions: W2
# Description: as §2
# Plasmodium falciparum [17] = assay: microbe, parasite or virus in culture; conditions: TM91C235
# Description: as §3
# Vero [18] = assay: Selectivity index, IC50 for VERO cells/IC50 for Plasmodium falciparum D6; assay type: functional
# Vero [19] = assay: Selectivity index, IC50 for VERO cells/IC50 for Plasmodium falciparum W2; assay type: functional
# Vero [20] = assay: Selectivity index, IC50 for VERO cells/LC50 for UO31 cells; assay type: functional
# Mus musculus [21] = assay: Effect on survival of CD1 mice (Mus musculus) infected with Plasmodium berghei KBG173 at 600 mg/kg/day, perorally; assay type: functional, organism-based; design: route oral; conditions: route oral
# Mus musculus [22] = assay: Effect on survival of CD1 mice (Mus musculus) infected with Plasmodium berghei KBG173 at 200 mg/kg/day, perorally; assay type: functional; conditions: route oral
# Mus musculus [23] = assay: Effect on survival of CD1 mice (Mus musculus) infected with Plasmodium berghei KBG173 at 50 mg/kg/day, perorally; assay type: functional; conditions: route oral
# RPMI-8226 = assay: Antiproliferative activity against human RPMI8226 cell line after 48 hrs; assay type: functional
# NCI-H23 = assay: Antiproliferative activity against human NCI-H23 cell line after 48 hrs; assay type: functional; conditions: NCI-H23, 48 h
# NCI-H460 = assay: Antiproliferative activity against human NCI-H460 cell line after 48 hrs; assay type: functional; conditions: NCI-H460, 48 h
# SF-268 = assay: Antiproliferative activity against human SF268 cell line after 48 hrs; assay type: functional; conditions: SF-268, 48 h
# CAKI-1 = assay: Antiproliferative activity against human CAKI1 cell line after 48 hrs; assay type: functional; conditions: CAKI-1, 48 h
# TK-10 = assay: Antiproliferative activity against human TK10 cell line after 48 hrs; assay type: functional; conditions: TK-10, 48 h
# Vero [24] = assay: Cytotoxicity against VERO cells; assay type: functional, cell-based; conditions: Chlorocebus sabaeus
# HOP-62 = assay: Antiproliferative activity against human HOP62 cell line after 48 hrs; assay type: functional; conditions: Homo sapiens, HOP-62, 48 h
# COLO 205 = assay: Antiproliferative activity against human COLO 205 cell line after 48 hrs; assay type: functional; conditions: Homo sapiens, COLO 205, 48 h
# ACHN = assay: Antiproliferative activity against human ACHN cell line after 48 hrs; assay type: functional; conditions: Homo sapiens, ACHN, 48 h
# [25] = read-out: LC50 (the source's name)
compound,measurement,setting,value
CC(=O)O[C@H]1C[C@H]2[C@@H]([C@H](OC(C)=O)C[C@@H]3CC4(CC[C@@]32C)OOC2(CCC(C(=O)Nc3ccccc3)CC2)OO4)[C@@H]2CC[C@H]([C@H](C)CCC(=O)Nc3ccccc3)[C@@]12C (stereo in doubt; 13),Selectivity index,PBMC [1],>33000
same,Selectivity index,PBMC [2],>18000
same,Selectivity index,PBMC [3],>25000
same,Selectivity index,PBMC [4],>392
same,GI50,786-0,450 nM
same,LC50,786-0,67.9 µM
same,TGI,786-0,14.2 µM
same,GI50,LOX IMVI,370 nM
same,TGI,LOX IMVI,1690 nM
same,CC50,LOX IMVI,7.15 µM
same,GI50,UO-31,50 nM
same,TGI,UO-31,190 nM
same,CC50,UO-31,510 nM
same,CL,Mus musculus [5],< 0.6 mL/min/g
same,CL,Liver microsomes,< 0.6 mL/min/g
same,half-life,[6],> 120 min
same,half-life,[7],> 120 min
same,IC50,PBMC [8],> 200 µM
same,GI50,EKVX,900 nM
same,LC50,EKVX,> 100 µM
same,TGI,EKVX,> 100 µM
same,IC50,PBMC [9],> 200 µM
same,IC50,Plasmodium falciparum [10],6.2 nM
same,IC90,Plasmodium falciparum [10],11.3 nM
same,IC50,Plasmodium falciparum [11],11.4 nM
same,IC90,Plasmodium falciparum [11],20.8 nM
same,IC50,Plasmodium falciparum [12],8.1 nM
same,IC90,Plasmodium falciparum [12],19.2 nM
CC(=O)O[C@H]1C[C@H]2[C@@H]([C@H](OC(C)=O)C[C@@H]3CC4(CC[C@@]32C)OOC2(CCC(C(=O)NCCN(C)C)CC2)OO4)[C@@H]2CC[C@H]([C@H](C)CCC(=O)NCCN(C)C)[C@@]12C (stereo in doubt; 11),GI50,LOX IMVI,1180 nM
same,TGI,LOX IMVI,2820 nM
same,CC50,LOX IMVI,19.9 µM
same,GI50,IGROV-1,900 nM
same,TGI,IGROV-1,2620 nM
same,CC50,IGROV-1,13.4 µM
same,CL,Mus musculus [5],< 0.6 mL/min/g
same,CL,Liver microsomes,< 0.6 mL/min/g
same,half-life,[6],> 120 min
same,half-life,[7],> 120 min
same,GI50,SF-539,1470 nM
same,TGI,SF-539,2990 nM
same,CC50,SF-539; [25],9.93 µM
same,GI50,SK-MEL-28,1920 nM
same,TGI,SK-MEL-28,11.3 µM
same,CC50,SK-MEL-28; [25],37 µM
same,IC50,Plasmodium falciparum [10],75.6 nM
same,IC90,Plasmodium falciparum [10],94.1 nM
same,IC50,Plasmodium falciparum [11],113 nM
same,IC90,Plasmodium falciparum [11],126 nM
same,IC50,Plasmodium falciparum [12],81.4 nM
same,IC90,Plasmodium falciparum [12],110 nM
CCN(CC)CCCC(C)Nc1ccnc2cc(Cl)ccc12 (configuration not stated) [CHLOROQUINE],Activity,Mus musculus [13],25.6 days
same,Activity,Mus musculus [14],12.8 days
same,IC90,Plasmodium falciparum [15],17.6 nM
same,IC90,Plasmodium falciparum [16],492 nM
same,IC90,Plasmodium falciparum [17],269 nM
CCCC(=O)CC[C@@H](C)[C@H]1CC[C@H]2[C@@H]3[C@H](OC(C)=O)C[C@@H]4CC5(CC[C@]4(C)[C@H]3C[C@H](OC(C)=O)[C@]12C)OOC1(CCCCC1)OO5,Selectivity index,Vero [18],823
same,Selectivity index,Vero [19],1763
same,Selectivity index,Vero [20],726
same,Activity,Mus musculus [21],28 days
same,Activity,Mus musculus [22],24.4 days
same,Activity,Mus musculus [23],14.2 days
same,GI50,IGROV-1,190 nM
same,TGI,IGROV-1,460 nM
same,CC50,IGROV-1,1.36 µM
same,GI50,UO-31,< 10 nM
same,TGI,UO-31,< 10 nM
same,CC50,UO-31,17 nM
same,TGI,"RPMI-8226; Homo sapiens, RPMI-8226, 48 h",3.47 µM
same,CC50,RPMI-8226; [25],1.28 µM and 9.37 µM
same,GI50,NCI-H23,610 nM
same,TGI,NCI-H23,1990 nM
same,CC50,NCI-H23; [25],4.64 µM
same,GI50,NCI-H460,180 nM
same,TGI,NCI-H460,590 nM
same,CC50,NCI-H460; [25],2600 nM
same,GI50,SF-268,1570 nM
same,TGI,SF-268,3.9 µM
same,CC50,SF-268; [25],9.68 µM
same,GI50,CAKI-1,180 nM
same,TGI,CAKI-1,400 nM
same,CC50,CAKI-1; [25],910 nM
same,GI50,TK-10,1670 nM
same,TGI,TK-10,3.62 µM
same,CC50,TK-10; [25],7.84 µM
same,IC50,Vero [24],12.3 µM
same,GI50,HOP-62,440 nM
same,TGI,HOP-62,1720 nM
same,CC50,HOP-62; [25],5.4 µM
same,GI50,COLO 205,1770 nM
same,TGI,COLO 205,3.72 µM
same,CC50,COLO 205; [25],7.82 µM
same,GI50,ACHN,1340 nM
same,LC50,ACHN,5.12 µM
same,TGI,ACHN,2620 nM
same,IC50,Plasmodium falciparum [15],14.8 nM
same,IC50,Plasmodium falciparum [16],6.8 nM
CC(=O)O[C@H]1C[C@H]2[C@@H]([C@H](OC(C)=O)C[C@@H]3CC4(CC[C@@]32C)OOC2(CCC(C(N)=O)CC2)OO4)[C@@H]2CC[C@H]([C@H](C)CCC(N)=O)[C@@]12C (stereo in doubt; 7),GI50,786-0,1690 nM
same,LC50,786-0,8.08 µM
same,TGI,786-0,3.7 µM
same,GI50,LOX IMVI,1850 nM
same,TGI,LOX IMVI,3950 nM
same,CC50,LOX IMVI,8.42 µM
same,CL,Mus musculus [5],1.59 mL/min/g
same,CL,Liver microsomes,3.4 mL/min/g
same,half-life,[6],38 min
same,half-life,[7],21 min
same,IC50,Plasmodium falciparum [10],11 nM
same,IC90,Plasmodium falciparum [10],17.3 nM
same,IC50,Plasmodium falciparum [11],17.1 nM
same,IC90,Plasmodium falciparum [11],34.4 nM
same,IC50,Plasmodium falciparum [12],11.8 nM
same,IC90,Plasmodium falciparum [12],56.7 nM
